# Measurements from US11059844B2, “Immune stimulating macrolides” (ISR IMMUNE SYSTEM REGULATION HOLDING AB (PUBL), priority 2017, dated 2021).
# What was measured:
# human TLR2 = target: T1, human TLR2 (Homo sapiens, UniProt O60603); test: TLR2 reporter assay (HEK-293-TLR, SEAP); type: cell-based
# T1 construct: host or cells: recombinant HEK-293-TLR cell lines
# Experimental: Samples and controls were tested in duplicate on recombinant HEK-293-TLR cell lines using a cell reporter assay at Invivogen using their standard assay conditions. These cell lines functionally over-express human TLR2 protein as well as a reporter gene which is a secreted alkaline phosphatase (SEAP). The production of this reporter gene is driven by an NFkB inducible promoter. The TLR reporter cell lines activation results are given as optical density values (OD).
# 20 μl of each test article were used to stimulate the hTLR2 reporter cell lines in a 200 μl of final reaction volume. Samples were tested in duplicate, with at least two concentrations tested—20 uM and 10 uM.
# Compounds were tested using a TLR2 reporter assay (see general methods) that measured for stimulation of the TLR2 receptor. Stimulatory effect was measured as an increase in optical density (OD) due to release of secreted alkaline phosphatase (SEAP) and is shown in table 4: […]
# [1] = tested on: Monocytes differentiated into macrophages; test: CD80 expression on monocytes differentiated into macrophages; type: cell-based, Human; details: 24 h
# Experimental: (§1) Human peripheral blood mononuclear cells (PBMCs) were purified from healthy donors with Ficoll-Paque density centrifugation. Cells were cultured in complete RPMI-1640 media (Invitrogen) supplemented with 25 mM HEPES, L-glutamine, Sodium pyruvate (Sigma), 10% fetal bovine serum, 100 μg/mL penicillin and 100 μg/mL streptomycin (Hyclone) for 24-72 hours in 37° C., 5% CO2 and stimulated with and increasing concentrations of compound 1 and 2. Cells were then washed in PBS and stained with monoclonal antibodies specific for cell surface markers (BD Pharmingen) and analysed with flow cytomtetry using a BD FACS Canto II flow cytometer. All samples were tested in duplicates.
# Human peripheral blood mononuclear cells (PBMCs) were purified from healthy donors with Ficoll-Paque density centrifugation. Cells were cultured in complete RPMI-1640 medium (Invitrogen) supplemented with 25 mM HEPES, L-glutamine, Sodium pyruvate (Sigma), 10% fetal bovine serum, 100 μg/mL penicillin and 100 μg/mL streptomycin (Hyclone). […] The cells were removed from the plate, washed in PBS and analysed for expression of cell specific surface markers and MHC class I with flow cytomtery using monoclonal antibodies from BD Pharmingen and a FACS Canto II flow cytometer.
# [2] = tested on: peripheral blood mononuclear cells (PBMC); test: Marker expression on PBMC by flow cytometry; type: cell-based, Human; details: 24 h
# Experimental: as §1
# Human peripheral blood mononuclear cells (PBMCs) were purified from healthy donors with Ficoll-Paque density centrifugation. Cells were cultured in complete RPMI-1640 medium (Invitrogen) supplemented with 25 mM HEPES, L-glutamine, Sodium pyruvate (Sigma), 10% fetal bovine serum, 100 μg/mL penicillin and 100 μg/mL streptomycin (Hyclone). Cells were stimulated for 24 h (study 1-4) or 48 h to 1 week (study 5) in 37° C., 5% CO2 with increasing concentrations of compound 1 and 2 in tissue culture plates. The cells were removed from the plate, washed in PBS and analysed for expression of cell specific surface markers and MHC class I with flow cytomtery using monoclonal antibodies from BD Pharmingen and a FACS Canto II flow cytometer.
# [3] = tested on: CMV specific CD8+ T cells; test: CMV cultures: phenotype of CMV specific CD8+ T cells; type: cell-based, Human; details: CMV antigen, 6 days
# Experimental: Human peripheral blood mononuclear cells (PBMCs) were purified from healthy CMV positive donors with Ficoll-Paque density centrifugation. The PBMC were labeled with 5 μM celltrace violet (Invitrogen) in PBS for 15 minutes and then washed with complete cell culture medium. The labeled PBMC was cultured in the presence of a peptide library spanning the CMV pp65 protein (1 μg peptide/ml, JPT) in AIM-V media (Invitrogen) supplemented with L-glutamine, Sodium pyruvate (Sigma), 10% fetal bovine serum, 100 μg/mL penicillin and 100 μg/mL streptomycin (Hyclone) for 6-8 days in 37° C., 5% CO2. Cell proliferation was assessed with flow cytomtery using a BD FACS Canto II flow cytometer.
# Study 7: Virus specific T cell proliferation was also affected by compound 1. […] CD127 is crucial for T cell homeostasis, differentiation and function, and reduced expression correlates with disease severity in HIV and other chronic viral diseases (Crawley et al. 2012).
# T1 sequence (O60603 21-784): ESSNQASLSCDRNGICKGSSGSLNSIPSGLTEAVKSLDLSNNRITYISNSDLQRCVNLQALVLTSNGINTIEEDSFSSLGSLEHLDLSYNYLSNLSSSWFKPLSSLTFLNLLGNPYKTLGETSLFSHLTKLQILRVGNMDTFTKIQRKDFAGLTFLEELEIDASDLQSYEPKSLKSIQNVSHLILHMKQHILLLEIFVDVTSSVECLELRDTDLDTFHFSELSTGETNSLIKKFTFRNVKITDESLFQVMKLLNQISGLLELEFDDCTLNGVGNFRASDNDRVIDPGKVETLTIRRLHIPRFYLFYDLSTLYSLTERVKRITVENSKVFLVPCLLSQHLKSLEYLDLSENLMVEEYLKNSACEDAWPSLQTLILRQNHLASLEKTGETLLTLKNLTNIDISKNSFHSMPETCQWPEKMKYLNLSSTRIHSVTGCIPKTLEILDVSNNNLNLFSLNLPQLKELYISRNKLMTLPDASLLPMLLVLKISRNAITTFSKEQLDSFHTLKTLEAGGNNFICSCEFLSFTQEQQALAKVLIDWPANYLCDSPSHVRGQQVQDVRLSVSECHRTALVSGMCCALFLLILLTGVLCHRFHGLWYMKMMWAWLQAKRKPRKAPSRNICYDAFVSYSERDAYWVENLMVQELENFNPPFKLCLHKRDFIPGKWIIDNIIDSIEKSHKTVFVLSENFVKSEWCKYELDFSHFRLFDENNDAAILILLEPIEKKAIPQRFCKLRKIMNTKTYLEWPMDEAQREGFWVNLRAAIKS
structure (smiles),measurement,setting,value
CC[C@H]1OC(=O)[C@H](C)[C@@H](O[C@H]2C[C@@H](N(C)C)[C@H](O)[C@@H](C)O2)[C@H](C)[C@@H](O)[C@](C)(O)C[C@@H](C)CN(C)[C@H](C)[C@@H](O)[C@]1(C)O [Compound 1],lowest concentration at which TLR2 was stimulated (concentrations down to),human TLR2,5 µM
same,OD after addition of 5 μM test article,human TLR2; 5 μM,0.111 OD
same,OD after addition of 10 μM test article,human TLR2; 10 μM,0.202 OD
same,OD after addition of 20 μM test article,human TLR2; 20 μM,0.458 OD
same,CD80 on macrophages,[1],upregulated
same,activation marker CD69 on CD4+ T cells and B cells,[2]; 1 μM,upregulated
same,MHC class I (HLA-ABC) on T- and B-cells,[2],upregulation
same,MHC class II (HLA-DR) on monocytes,[2],upregulation
same,co-stimulatory molecule CD80 on monocytes,[2],upregulation
same,expression of IL-7 receptor a (CD127) on activated CMV specific CD8+ T cells,[3],increased expression
